The record followed here is ChEMBL document CHEMBL1201862, “PubChem BioAssay data set” (2004).

Active and inactive are the calls of the source. A value given as a limit tells only on which side of the number the result lay.

Assay [1] can be described thus: HepG2 cell cytotoxicity, dose response, cytotoxicity control for non-replicating M. tuberculosis project (AID 489018). The assay is classed as functional. The note with it: Mycobacterium tuberculosis.
Assay [2] deals with T1, Rac GTPase-activating protein 1 (Homo sapiens, UniProt Q9H0H5).
T1 sequence (Q9H0H5 whole entry): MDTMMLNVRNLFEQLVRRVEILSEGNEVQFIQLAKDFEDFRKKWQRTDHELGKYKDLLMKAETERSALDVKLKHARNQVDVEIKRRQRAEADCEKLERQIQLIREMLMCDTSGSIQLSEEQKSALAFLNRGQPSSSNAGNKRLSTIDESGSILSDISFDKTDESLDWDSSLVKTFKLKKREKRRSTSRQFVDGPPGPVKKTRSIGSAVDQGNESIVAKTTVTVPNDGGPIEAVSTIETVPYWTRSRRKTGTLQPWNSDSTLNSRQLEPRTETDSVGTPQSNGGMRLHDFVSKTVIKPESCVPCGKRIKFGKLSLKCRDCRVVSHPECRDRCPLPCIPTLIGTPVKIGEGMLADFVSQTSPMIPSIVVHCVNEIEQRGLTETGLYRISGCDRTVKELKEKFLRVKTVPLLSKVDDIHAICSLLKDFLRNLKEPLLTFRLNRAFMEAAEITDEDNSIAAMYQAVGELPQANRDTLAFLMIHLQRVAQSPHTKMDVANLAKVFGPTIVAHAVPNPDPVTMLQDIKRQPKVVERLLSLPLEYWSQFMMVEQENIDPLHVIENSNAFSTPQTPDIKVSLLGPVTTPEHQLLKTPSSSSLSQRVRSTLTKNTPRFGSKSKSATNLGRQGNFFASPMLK
As to the kind of experiment: MgcRacGAP GTPase-activating activity inhibitors, confirmation, biochemical, ADP Hunter fluorescence, primary and confirmatory (AID 624330). It is filed as functional.

Assay [3] can be described thus: LGR2 antagonists, dose response, cell-based, HEK293, CRE-luciferase reporter, cherry pick, set 2 (AID 743343).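 Note: transfected cells were stimulated with diluted bursicon conditioned medium after compound addition.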 The assay is classed as functional.
Assay [4] can be described thus: microbe, parasite or virus in culture. The assay is classed as functional. The note with it: Mycobacterium tuberculosis.
The nature of assay [5]: MC4R antagonists, dose response, counter-screen for LGR2 antagonist project, cell-based, plate reader, cherry pick (AID 743444).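 Note: transfected HEK 293 cells stimulated with alpha-MSH peptide; potency of inhibitors of the alpha-MSH evoked signal.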 The assay is classed as functional.
The nature of assay [6]: Shn3 3'UTR reporter inhibitors, dose response, cell-based, Clone20 osteoblasts, firefly luciferase, cherry-picked (AID 624132).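 Note: firefly luciferase luminescence from reporter carrying the Shn3 3'UTR in osteoblasts.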 It is filed as functional.
A short description of assay [7]: cells. The assay is classed as functional.
Assay [8] is described as follows: control 3'UTR Renilla luciferase suppression, dose response, counter-screen for Shn3 inhibitor project, cell-based, Clone20-Shn3RL, cherry-picked (AID 624133). The assay is classed as functional.
Assay [9] can be described thus: THP-1 cell cytotoxicity, dose response, cytotoxicity control for non-replicating M. tuberculosis project (AID 489025). It is filed as functional.
Assay [10] in a line: HeLa cell cytotoxicity, dose response, cytotoxicity control for MgcRacGAP inhibitor project (AID 624300). It is filed as functional.
Assay [11] in a line: HepG2 cell cytotoxicity, dose response, cytotoxicity control, plate reader, cherry-pick, antagonist series (AID 743416). The assay is classed as functional, cell-based.
Assay [12] in a line: A549 cell cytotoxicity, dose response, cytotoxicity control, plate reader, cherry-pick, antagonist series (AID 743412). It is filed as functional, cell-based.
Assay [13] in a line: HepG2 cell cytotoxicity, dose response, cytotoxicity control for Shn3 inhibitor project, CellTiter-Glo, cherry-picked (AID 624134). It is filed as functional, cell-based.
For assay [14], the system named is Vero. As to the kind of experiment: West Nile virus CPE inhibition, SAR follow-up, cell-based, synthesized analogs (AID 2238). The assay is classed as functional. To be noted: Chlorocebus sabaeus.
Assay [15] has as its system Vero. As to the kind of experiment: Vero E6 cell cytotoxicity, SAR follow-up, cytotoxicity control for West Nile virus antiviral project, synthesized analogs (AID 2244). It is filed as functional. The note with it: Chlorocebus sabaeus.
The target of assay [16] is T2, Ubiquitin-conjugating enzyme E2 N (Homo sapiens, UniProt P61088).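 Note: Dose-response confirmation in a TR-FRET assay detecting UBC13-driven polyubiquitin chain formation, inhibition measured.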
T2 sequence (P61088 whole entry): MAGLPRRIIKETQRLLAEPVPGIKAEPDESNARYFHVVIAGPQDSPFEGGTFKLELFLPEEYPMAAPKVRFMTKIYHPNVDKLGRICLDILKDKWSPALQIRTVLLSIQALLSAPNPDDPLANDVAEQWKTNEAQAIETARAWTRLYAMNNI
It is filed as functional.

The subject of assay [17] is Vero. As to the kind of experiment: cytotoxicity of synthesized analogs in Vero 76, SAR follow-up, cytotoxicity control for West Nile virus antiviral project, Vero 76 cells (AID 2414). The assay is classed as functional. The note with it: Chlorocebus sabaeus.
The subject of assay [18] is Vero. Briefly: cytotoxicity of synthesized analogs in Vero cells, SAR follow-up, cytotoxicity control for West Nile virus antiviral project, cell-based, set II (AID 2402). The note with it: Chlorocebus sabaeus. It is filed as functional.
The nature of assay [19]: A Cell Based Assay for the Identification of Probe candidate Compounds with Anti- Venezuelan Equine Encephalitis virus. [Related pubchem assays: 2409, 2419, 1621, 2238, 2405, 2024, 2065, 2402, 2414, 1635, 1650, 2244 ]. The assay is classed as functional.
Assay [20] concerns the target Voltage-dependent T-type calcium channel subunit alpha-1H (Homo sapiens, UniProt O95180). As to the kind of experiment: Cav3.2 T-type channel inhibitors, cell-based, synthetic library set 1, calcium flux (AID 493022). The assay is classed as functional.
The target in assay [21] is T3, Sphingosine 1-phosphate receptor 4 (Homo sapiens, UniProt O95977).
T3 sequence (O95977 whole entry): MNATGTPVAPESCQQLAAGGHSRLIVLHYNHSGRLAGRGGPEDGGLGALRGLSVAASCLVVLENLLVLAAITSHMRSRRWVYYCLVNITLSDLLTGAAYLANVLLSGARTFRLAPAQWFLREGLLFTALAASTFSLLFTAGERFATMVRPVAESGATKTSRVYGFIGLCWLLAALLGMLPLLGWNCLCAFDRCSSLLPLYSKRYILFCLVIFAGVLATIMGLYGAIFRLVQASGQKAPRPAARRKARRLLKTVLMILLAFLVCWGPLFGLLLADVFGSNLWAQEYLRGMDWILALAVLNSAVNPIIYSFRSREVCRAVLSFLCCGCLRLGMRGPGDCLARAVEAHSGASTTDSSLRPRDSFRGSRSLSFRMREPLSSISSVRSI
As to the kind of experiment: S1P4 receptor agonists, human, late-stage follow-up, cell-based, fluorescence, synthesized compounds (AID 463107). The assay is classed as functional.

Chain of Voltage-dependent T-type calcium channel subunit alpha-1H (O95180 whole entry): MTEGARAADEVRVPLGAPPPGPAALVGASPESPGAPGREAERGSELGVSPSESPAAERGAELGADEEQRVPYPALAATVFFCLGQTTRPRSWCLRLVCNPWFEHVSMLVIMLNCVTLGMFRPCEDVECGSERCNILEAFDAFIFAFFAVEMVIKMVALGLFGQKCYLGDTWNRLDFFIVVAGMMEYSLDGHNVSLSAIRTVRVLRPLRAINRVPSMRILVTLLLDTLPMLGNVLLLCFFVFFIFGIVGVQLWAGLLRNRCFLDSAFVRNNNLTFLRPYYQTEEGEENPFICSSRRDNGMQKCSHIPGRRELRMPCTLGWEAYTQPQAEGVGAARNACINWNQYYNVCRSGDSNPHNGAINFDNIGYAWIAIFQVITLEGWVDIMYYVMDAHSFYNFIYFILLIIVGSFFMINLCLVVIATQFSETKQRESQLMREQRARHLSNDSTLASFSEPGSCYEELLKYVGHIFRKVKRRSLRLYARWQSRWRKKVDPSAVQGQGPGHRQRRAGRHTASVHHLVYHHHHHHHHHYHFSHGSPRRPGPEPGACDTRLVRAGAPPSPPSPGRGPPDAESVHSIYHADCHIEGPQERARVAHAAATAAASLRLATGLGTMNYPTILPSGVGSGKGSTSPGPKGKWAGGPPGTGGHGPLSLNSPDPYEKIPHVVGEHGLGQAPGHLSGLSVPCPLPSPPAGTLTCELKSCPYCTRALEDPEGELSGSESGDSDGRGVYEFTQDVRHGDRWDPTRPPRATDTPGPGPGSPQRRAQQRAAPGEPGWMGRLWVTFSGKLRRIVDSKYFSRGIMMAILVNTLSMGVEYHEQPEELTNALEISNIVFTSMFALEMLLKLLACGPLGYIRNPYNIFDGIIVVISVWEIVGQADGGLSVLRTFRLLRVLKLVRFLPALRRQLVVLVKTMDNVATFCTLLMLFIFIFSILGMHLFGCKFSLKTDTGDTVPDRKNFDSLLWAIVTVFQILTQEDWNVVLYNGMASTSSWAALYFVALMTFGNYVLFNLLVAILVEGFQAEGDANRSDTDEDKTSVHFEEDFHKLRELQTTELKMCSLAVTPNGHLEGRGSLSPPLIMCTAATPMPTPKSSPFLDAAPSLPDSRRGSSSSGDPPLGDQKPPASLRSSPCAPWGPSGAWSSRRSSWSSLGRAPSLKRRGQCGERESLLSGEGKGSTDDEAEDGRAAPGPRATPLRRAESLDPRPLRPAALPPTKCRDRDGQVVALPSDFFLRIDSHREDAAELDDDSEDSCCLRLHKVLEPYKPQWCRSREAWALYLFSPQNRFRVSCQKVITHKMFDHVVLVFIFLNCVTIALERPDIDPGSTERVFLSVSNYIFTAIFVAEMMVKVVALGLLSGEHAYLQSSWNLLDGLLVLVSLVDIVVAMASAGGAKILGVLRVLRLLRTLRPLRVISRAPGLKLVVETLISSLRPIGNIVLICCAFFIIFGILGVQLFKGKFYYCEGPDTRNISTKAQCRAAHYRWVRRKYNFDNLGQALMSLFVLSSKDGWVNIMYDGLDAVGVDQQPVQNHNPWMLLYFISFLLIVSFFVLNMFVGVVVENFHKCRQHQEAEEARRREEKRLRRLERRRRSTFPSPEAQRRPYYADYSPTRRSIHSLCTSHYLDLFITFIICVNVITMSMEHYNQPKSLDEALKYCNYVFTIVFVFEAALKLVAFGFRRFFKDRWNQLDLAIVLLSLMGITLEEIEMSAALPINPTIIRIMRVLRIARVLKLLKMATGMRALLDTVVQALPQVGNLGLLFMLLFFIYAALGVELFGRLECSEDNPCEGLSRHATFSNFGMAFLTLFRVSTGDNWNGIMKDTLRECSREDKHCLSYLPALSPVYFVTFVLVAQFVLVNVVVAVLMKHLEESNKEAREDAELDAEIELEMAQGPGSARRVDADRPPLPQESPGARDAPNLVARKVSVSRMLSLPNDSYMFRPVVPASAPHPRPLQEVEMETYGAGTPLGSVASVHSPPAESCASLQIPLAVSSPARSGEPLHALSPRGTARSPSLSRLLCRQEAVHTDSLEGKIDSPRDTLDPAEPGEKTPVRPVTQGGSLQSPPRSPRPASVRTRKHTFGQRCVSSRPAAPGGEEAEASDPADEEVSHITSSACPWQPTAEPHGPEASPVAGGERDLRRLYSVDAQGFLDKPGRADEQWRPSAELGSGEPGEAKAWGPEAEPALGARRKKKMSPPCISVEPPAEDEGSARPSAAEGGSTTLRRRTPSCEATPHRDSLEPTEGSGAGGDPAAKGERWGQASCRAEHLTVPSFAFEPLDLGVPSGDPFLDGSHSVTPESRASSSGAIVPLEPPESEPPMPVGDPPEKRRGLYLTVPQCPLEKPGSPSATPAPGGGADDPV

Regarding `CCn1c2ccccc2c2cc(CNCc3ccc(OC)cc3OC)ccc21`, the CC50 was 15.6 µM (active) in [1], 19.3 µM (active) in [4], 16.7 µM (active) in [9] and 37 µM (active) in [10]. The 50% inhibitory concentration (IC50) was 99.7 µM (active) in [2] and 12.8 µM (active) in [7]. In addition, the AC50 in assay [3] was 18.6 µM (active); in assay [5], 32.9 µM (active); in assay [6], 14.7 µM (active); in [8] it was 14.8 µM (active); in assay [11], 13.8 µM (active); in assay [12], 13.6 µM (active). The half-maximal activity concentration (AC50) in assay [13] is 16.9 µM (active).

Take `Cc1cccc2c1-c1sc(C(=O)NCCCN3CCC(C)CC3)cc1CO2`: the IC50 in assay [14] is > 40 µM (active); in [16] it was > 20 µM (inactive); in [19], 8.52 µM (active). The figures for the CC50 in assay [15], in assay [17] and in [18] were 10 µM (active), 20 µM (active) and 10.1 µM (active), respectively.

Regarding `O=C(COc1ccc(F)cc1)Nc1nnc(-c2ccc3ccccc3c2)o1`, the EC50 in assay [20] is 3.5 µM (active).

For `Cc1ccc(OCCOc2ccccc2)c([N+](=O)[O-])n1`, the EC50 in [21] was > 50 µM (inactive).
